Test results published in patent publication US4025629A, “P-(trifluoromethylquinolylamino)benzamides, pharmaceutical dosage forms and method of treatment” (The Upjohn Company, priority 1975, dated 1977).
“And” between values parts separate entries of the source, which are not always exact repeats. Identical values can stand only once.

Tests used:
[1] = system: Schistosoma Mansoni cercariae; details: 160 mg./kg. subcutaneously; cited from earlier work
Plasmodium berghei = details: mice; 160 mg./kg. subcutaneously; cited from earlier work
[2] = system: male mice (motor activity); test: Inhibition of motor activity of mice on drug-containing diet (actophotometers); assay type: in vivo, mouse; details: after 20 hours on diet
Method: The essential active ingredient is suspended in a normal mouse diet to provide a concentration in the diet of from about 0.03 to about 0.3%. Groups of male mice, 18-22 gm. each, are fed a stock diet containing various concentrations of the essential active ingredient. Motor activity is determined after 20 hours on the diet, four groups of two mice from each test group being placed in actophotometers. After a ten minute acclimation period, motor activity is recorded for a ten minute period with the following results: […]

[3] = system: unanesthetized normotensive rats; test: Hypotensive effect (mean arterial pressure) in unanesthetized normotensive rats, oral aqueous suspension; assay type: in vivo, rat; details: for B.P. Change: individual rats
Method: An aqueous suspension for oral administration is prepared by suspending the essential active ingredient at a concentration of 10 mg./ml. in an aqueous solution containing 1% of sodium carboxymethylcellulose. This suspension is used for bringing about hypotensive effects in unanesthetized normotensive rats. The rats are prepared for measuring blood pressure directly from the aorta through a chronic indwelling cannula (Weeks and Jones, Proc. Soc. Exptl. Biol. and Med., 104, 646, 1960). Mean arterial pressure is measured prior to and at four hours and 24 hours after drug administration at a specified dose.

For `CN1CCN(C(=O)c2ccc(Nc3ccnc4cc(Cl)ccc34)cc2)CC1` [1-[p-[(7-chloro-4-quinolyl)amino]-N,N-(3-methyl-3-azapentamethylene]benzamide], the “activity against Schistosoma Mansoni cercariae in mice” value [1] is given as “Slight activity” and the “activity against Plasmodium berghei” value (Plasmodium berghei) is given as “Slight activity”.

For `CN1CCN(C(=O)c2ccc(Nc3ccnc4cc(C(F)(F)F)ccc34)cc2)CC1` [essential active ingredient, p-[(7-trifluoromethyl-4-quinolyl)amino]-N,N-(3-methyl-3-azapentamethylene)benzamide], the “% Inhibition Motor Activity” value ([2]; 0.1% conc. in diet, 24 hour drug intake 95 mg./kg.) was 96%, the “% Inhibition Motor Activity” value ([2]; 0.3% conc. in diet (third line), 24 hour drug intake 47 mg./kg.) was 68% and the “% Inhibition Motor Activity” value ([2]; 0.3% conc. in diet, 24 hour drug intake 94 mg./kg.) was 92%. The “B.P. Change” value ([3]; oral 1 mg./kg., 4 hr.) was 0 mm Hg, the “B.P. Change” value ([3]; oral 1 mg./kg., 24 hr.) was -10 mm Hg and 0 mm Hg and the “B.P. Change” value ([3]; oral 3.12 mg./kg., 4 hr.) was -18 mm Hg and +12 mm Hg and 0 mm Hg. For the same compound, the “B.P. Change” value ([3]; oral 3.12 mg./kg., 24 hr.) was -18 mm Hg and -10 mm Hg, the “B.P. Change, avg” value ([3]; oral 6.35 mg./kg., 4 hr., average of 4 rats (initial avg 138)) was -13 mm Hg and the “B.P. Change” value ([3]; oral 6.35 mg./kg., 4 hr.) was -14 mm Hg and -16 mm Hg. For the same compound, the “B.P. Change, avg” value ([3]; oral 6.35 mg./kg., 24 hr., average of 4 rats (initial avg 138)) was -12 mm Hg, the “B.P. Change” value ([3]; oral 6.35 mg./kg., 24 hr.) was -10 mm Hg and -14 mm Hg and the “B.P. Change, avg” value ([3]; oral 12.5 mg./kg., 24 hr., average of 4 rats (initial avg 132)) was -17 mm Hg. For the same compound, the “B.P. Change” value ([3]; oral 12.5 mg./kg., 24 hr.) was -24 mm Hg and -12 mm Hg, the “B.P. Change, avg” value ([3]; oral 25 mg./kg., 4 hr., average of 4 rats (initial avg 138)) was -18 mm Hg and the “B.P. Change” value ([3]; oral 25 mg./kg., 4 hr.) was -22 mm Hg and -30 mm Hg and -12 mm Hg. The “B.P. Change, avg” value ([3]; oral 25 mg./kg., 24 hr., average of 4 rats (initial avg 138)) was -23 mm Hg, the “B.P. Change” value ([3]; oral 25 mg./kg., 24 hr.) was -22 mm Hg and -28 mm Hg and -20 mm Hg and the “B.P. Change, avg” value ([3]; oral 50 mg./kg., 4 hr., average of 4 rats (initial avg 133)) was -13 mm Hg. For the same compound, the “B.P. Change” value ([3]; oral 50 mg./kg., 4 hr.) was -16 mm Hg and -22 mm Hg, the “B.P. Change, avg” value ([3]; oral 50 mg./kg., 24 hr., average of 4 rats (initial avg 133)) was -17 mm Hg and the “B.P. Change” value ([3]; oral 50 mg./kg., 24 hr.) was -22 mm Hg and -28 mm Hg and 0 mm Hg.

In the case of `CN1CCN(C(=O)c2cccc(Nc3ccnc4cc(Cl)ccc34)c2)CC1` [its meta isomer], the “activity against Schistosoma Mansoni cercariae in mice” value [1] is listed as “Slight activity” and the “activity against Plasmodium berghei” value (Plasmodium berghei) is listed as “Slight activity”.
